Assay results taken from article PMC9967275, “Screening the Pathogen Box to Discover and Characterize New Cruzain and TbrCatL Inhibitors” (Pathogens, 2023).

Tests used:
[1] = biological target: cruzain (Trypanosoma cruzi, UniProt P25779); assay: biochemical; conditions: for Cruzain 0’ Inhibition / Cruzain 10’ Inhibition: sheet "Screening results"
Outline: (§1)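 Recombinant enzymes assayed by Z-Phe-Arg-AMC cleavage at 25 °C, fluorescence 340/440 nm over 5–7 min, with 10 min or no enzyme–compound preincubation.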

[2] = biological target: T1, TbrCatL (Trypanosoma brucei rhodesiense, UniProt Q95PM0); assay: TbrCatL enzymatic inhibition assay (cleavage of fluorogenic substrate Z-FR-AMC); format: biochemical; conditions: for TbrCatL 0’ Inhibition / TbrCatL 10’ Inhibition: sheet "Screening results"
T1 construct: Conor Caffrey (University of California San Diego)
Outline: as §1

[3] = 0’ (no pre-incubation), sheet Screening results
[4] = 10’ (pre-incubation), sheet Screening results
[5] = 0’ (pre-incubation time), Pathogen Box screening results
[6] = 10’ (pre-incubation time), Pathogen Box screening results
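Also: at 5 µM compound concentration.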

Chain of cruzain (P25779 123-337 limits assumed): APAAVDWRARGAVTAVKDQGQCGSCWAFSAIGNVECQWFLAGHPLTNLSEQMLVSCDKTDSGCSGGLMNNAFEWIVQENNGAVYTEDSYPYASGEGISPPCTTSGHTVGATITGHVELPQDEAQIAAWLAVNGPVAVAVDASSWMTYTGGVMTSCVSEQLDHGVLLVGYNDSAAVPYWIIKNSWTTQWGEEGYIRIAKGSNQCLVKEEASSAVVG
T1 sequence (Q95PM0 entry or part of it): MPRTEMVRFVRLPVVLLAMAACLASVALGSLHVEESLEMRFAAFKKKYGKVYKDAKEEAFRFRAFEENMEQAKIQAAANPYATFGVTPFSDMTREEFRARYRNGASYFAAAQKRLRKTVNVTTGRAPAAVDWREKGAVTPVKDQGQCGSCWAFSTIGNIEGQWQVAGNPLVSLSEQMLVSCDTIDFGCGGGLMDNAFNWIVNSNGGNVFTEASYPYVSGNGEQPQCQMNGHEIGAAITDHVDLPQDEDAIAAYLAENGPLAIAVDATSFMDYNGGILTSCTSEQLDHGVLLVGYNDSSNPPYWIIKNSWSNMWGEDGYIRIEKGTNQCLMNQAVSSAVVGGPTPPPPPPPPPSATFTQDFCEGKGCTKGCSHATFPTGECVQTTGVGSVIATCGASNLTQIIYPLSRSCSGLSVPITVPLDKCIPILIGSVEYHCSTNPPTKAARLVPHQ

Compound | Cruzain Inhibition 0’ [1, 3] [%] | Cruzain Inhibition 10’ [1, 4] [%] | TbrCatL Inhibition 0’ [2, 3] [%] | TbrCatL Inhibition 10’ [2, 4] [%] | Cruzain 0’ Inhibition ([1]; 0’ (pre-incubation time)) [%] | Cruzain 10’ Inhibition ([1]; 10’ (pre-incubation time)) [%] | TbrCatL 0’ Inhibition ([2]; 0’ (pre-incubation time)) [%] | TbrCatL 10’ Inhibition ([2]; 10’ (pre-incubation time)) [%] | other results
Cc1cc2ccccc2n1CC(=O)N1CC(C(=O)N2CCCCC2)Oc2ccccc21 (centres unmarked) [MMV020520] | 4.7 | 3.4 | 1.6 | 10 | – | – | – | – | –
C[C@]1(COc2ccc(N3CCC(Oc4ccc(OC(F)(F)F)cc4)CC3)cc2)Cn2cc([N+](=O)[O-])nc2O1 [MMV688262] | – | – | – | – | -0.1 | -0.4 | 0.7 | -1.4 | –
c1csc(-c2cnc3sc(NCC4CCOCC4)nn23)c1 [MMV010764] | 14 | 16 | 14 | 19 | – | – | – | – | –
NCC(c1cccs1)S(=O)(=O)c1ccccc1 (centres unmarked) [MMV688557] | – | – | – | – | – | – | – | – | Cruzain Inhibition 0’ [1, 5]: 2.3%; Cruzain Inhibition 10’ [1, 6]: 0.1%; TbrCatL Inhibition 0’ [2, 5]: -0.6%; TbrCatL Inhibition 10’ [2, 6]: 1.2%
Cc1ccc(NC(=O)CC2COc3ccccc3O2)cc1Cl (centres unmarked) [MMV676431] | 0.5 | 4.3 | 5 | 5 | – | – | – | – | –
CCc1ccc(C(NCc2nc(N)nc(N(C)C)n2)C(C)C)cc1 (centres unmarked) [MMV1019989] | – | – | – | – | -10 | -7 | -6 | -5 | –
Cc1cc(NC(=O)c2ccc(Oc3ccc(Cl)cc3O)o2)no1 [MMV688955] | – | – | – | – | -9 | -13 | -6 | -12 | –
Brc1cncc(-c2cc(NCCCn3ccnc3)nc(-c3ccccc3)n2)c1 [MMV661713] | 20 | 13 | 20 | 10 | – | – | – | – | –
O=C(Nc1ccccc1)c1ccc(-c2cc3ccncc3cc2OC2CCNCC2)s1 [MMV024035] | – | – | – | – | 5 | -6.5 | -3 | -5 | –
Cn1c(=O)c2c(S(C)(=O)=O)snc2n(C)c1=O [MMV687251] | – | – | – | – | 12 | 2.8 | 2.7 | 0.4 | –
COc1cccc(OC)c1C(=O)Nc1ccc(Cl)c(-c2nc3ccccc3s2)c1 [MMV676472] | – | – | – | – | 8 | 14 | 4 | -2 | –
CC(C)(C)c1ccc(N[C@@H]2CCCC[C@H]2NC(=O)c2ccco2)cc1 [MMV675969] | – | – | – | – | -8 | -5 | -4.6 | -6 | –
COc1ccc(Oc2ccc([C@@H](C)N(C)c3ncc4c(N)nc(N)nc4n3)cc2)cc1 [MMV690102] | – | – | – | – | 0.4 | 12 | -2.5 | 14 | –
FC(F)(F)c1cnc(Sc2nnc(-c3ccncc3)o2)c(Cl)c1 [MMV011765] | – | – | – | – | 0.7 | -0.5 | -4 | -1.2 | –
O=C(NCCc1ccccc1)c1cc(-c2cccnc2)cnc1NCC1CC1 [MMV026490] | – | – | – | – | -1.3 | -5 | 0.1 | -13 | –
COc1ccc(Nc2ccccc2NC(=O)c2ccc(=O)[nH]c2)cc1 [MMV676554] | 2.8 | 0.5 | 10 | 4.5 | – | – | – | – | –

Compound | Cruzain Inhibition 0’ [1, 3] [%] | Cruzain Inhibition 10’ [1, 4] [%] | TbrCatL Inhibition 0’ [2, 3] [%] | TbrCatL Inhibition 10’ [2, 4] [%] | Cruzain 0’ Inhibition ([1]; 0’ (pre-incubation time)) [%] | Cruzain 10’ Inhibition ([1]; 10’ (pre-incubation time)) [%] | TbrCatL 0’ Inhibition ([2]; 0’ (pre-incubation time)) [%] | TbrCatL 10’ Inhibition ([2]; 10’ (pre-incubation time)) [%] | other results
COC(=O)c1cccc2oc(-c3cccc(OC)c3NC(=O)c3cc(-c4ccccc4)on3)nc12 [MMV676186] | – | – | – | – | -3.5 | 5.3 | -3.7 | -5 | –
CS(=O)(=O)Cc1nc2ccccc2oc1=O [MMV553002] | 18 | 12 | 19 | 19 | – | – | – | – | –
Cc1cc(Nc2ccncc2)n2nc(C)c(-c3ccccc3Cl)c2n1 [MMV016136] | 4.7 | 4.5 | 3.2 | 6 | – | – | – | – | –
CC(=O)N1CCc2cc3nc(C)cc(C)c3cc21 [MMV054312] | 10 | 11 | 9 | 19 | – | – | – | – | –
CC(C)(C)c1cc(C(=O)N2CCN(c3nccnc3C#N)CC2)n(Cc2ccccc2)n1 [MMV023949] | – | – | – | – | -0.2 | 6 | 12 | -3 | –
CCc1ccc([C@@H]2C[C@H](C(F)(F)F)n3ncc(C(=O)NCc4ccc(OC)cc4)c3N2)cc1 [MMV687180] | – | – | – | – | -9 | -7 | -4.3 | -11 | –
CCCNC(=O)N1CCC2(CC1)CC(=O)c1cc(C)ccc1O2 [MMV085230] | – | – | – | – | 15 | 18 | 8.5 | 13 | –
Nc1ncnc2c1ncn2[C@@H]1O[C@H](COS(=O)(=O)NC(=O)c2ccccc2O)[C@@H](O)[C@H]1O [MMV687700] | – | – | – | – | 3 | 10 | 3 | 17 | –
CCc1nc2ccccc2n1CC(O)COc1cc(C)ccc1Cl (centres unmarked) [MMV676449] | 4.5 | 6 | 1.5 | 3.5 | – | – | – | – | –
CCn1ncc2c(NC3CCOCC3)c(CNC(=O)c3ccnn3C)c(C)nc21 [MMV026356] | – | – | – | – | -0.3 | 1.1 | -6 | -7 | –
O=C(C(Cc1c[nH]c2ccccc12)NS(=O)(=O)c1ccc(Cl)cc1)N1CCCCC1 (centres unmarked) [MMV085210] | 4.5 | 6.5 | 11 | 8 | – | – | – | – | –
CC1CCCCN1C(=O)NCCc1coc(-c2ccc(F)cc2)n1 (centres unmarked) [MMV688797] | 15 | 10 | 16 | 15 | – | – | – | – | –
O=C(NCc1cc(Cl)cc(Cl)c1)c1c(C(F)(F)F)nc2ccccn12 [MMV687699] | – | – | – | – | 3.3 | 7 | -1.6 | -6 | –
Cc1nn(C)c(C)c1NS(=O)(=O)c1c(Cl)cc(-c2ccnc(N3CCNCC3)c2)cc1Cl [MMV688180] | – | – | – | – | -4 | 10 | -7 | 28 | –
Cc1cc(NC(=O)c2ccc(S(=O)(=O)N(Cc3ccccc3)C(C)C)cc2)no1 [MMV007133] | – | – | – | – | -3 | -4.5 | -7 | -11 | –
COc1ccc(C(=N)N)cc1-c1cn(-c2ccc(C(=N)N)cc2)nn1 [MMV675998] | – | – | – | – | 6 | 26 | 2 | 34 | –
